The NIST ThermoML archive (doi:10.1016/j.fluid.2006.01.022)
Numbers after ± are expanded uncertainties.

Key:
[1] = 101.33 kPa, Liquid, Alternating current cell with electrodes
[2] = xn = mol fraction of the nth substance listed; conditions: Liquid, Alternating current cell with electrodes

CCn1cc[n+](C)c1.F[B-](F)(F)F [1-ethyl-3-methylimidazolium tetrafluoroborate]
[1]
Conditions | electrical conductivity [S/m]
258.1 K | 0.245 ± 0.049
263.1 K | 0.296 ± 0.059
268.1 K | 0.445 ± 0.089
273.1 K | 0.612 ± 0.12
278.1 K | 0.735 ± 0.15
283.1 K | 0.896 ± 0.18
288.1 K | 1.09 ± 0.22
293.1 K | 1.3 ± 0.26
298.1 K | 1.57 ± 0.31
303.1 K | 1.79 ± 0.36
308.1 K | 2.02 ± 0.4
313.1 K | 2.28 ± 0.46
318.1 K | 2.55 ± 0.51
323.1 K | 2.85 ± 0.57
328.1 K | 3.22 ± 0.64
333.1 K | 3.56 ± 0.71
338.1 K | 3.95 ± 0.79
343.1 K | 4.35 ± 0.87
348.1 K | 4.77 ± 0.95
353.1 K | 5.22 ± 1
358.1 K | 5.55 ± 1.1
363.1 K | 5.95 ± 1.2
368.1 K | 6.46 ± 1.3
373.1 K | 6.9 ± 1.4
378.1 K | 7.36 ± 1.5
383.1 K | 7.83 ± 1.6
388.1 K | 8.32 ± 1.7
393.1 K | 8.77 ± 1.8
398.1 K | 9.29 ± 1.9
403.1 K | 9.79 ± 2
408.1 K | 10.3 ± 2
413.1 K | 10.8 ± 2.2
418.1 K | 11.3 ± 2.3
423.1 K | 11.8 ± 2.4
428.1 K | 12.3 ± 2.5
433.1 K | 12.7 ± 2.5

[Cl][Al]([Cl])[Cl] [aluminum chloride] + CCn1cc[n+](C)c1.[Cl-]
electrical conductivity [S/m], [2]
Conditions | x1 = 0.33 | x1 = 0.6
253.1 K | 0.0315 ± 0.0063 | 0.0377 ± 0.0075
258.1 K | 0.0515 ± 0.01 | 0.0517 ± 0.01
263.1 K | 0.0855 ± 0.017 | 0.1 ± 0.02
268.1 K | 0.127 ± 0.025 | 0.143 ± 0.029
273.1 K | 0.195 ± 0.039 | 0.206 ± 0.041
278.1 K | 0.3 ± 0.06 | 0.283 ± 0.057
283.1 K | 0.39 ± 0.078 | 0.385 ± 0.077
288.1 K | 0.53 ± 0.11 | 0.515 ± 0.1
293.1 K | 0.705 ± 0.14 | 0.669 ± 0.13
298.1 K | 0.907 ± 0.18 | 0.861 ± 0.17
303.1 K | 1.11 ± 0.22 | 1.08 ± 0.22
308.1 K | 1.37 ± 0.27 | 1.32 ± 0.26
313.1 K | 1.67 ± 0.33 | 1.6 ± 0.32
318.1 K | 2.02 ± 0.4 | 1.91 ± 0.38
323.1 K | 2.4 ± 0.48 | 2.26 ± 0.45
328.1 K | 2.81 ± 0.56 | 2.64 ± 0.53
333.1 K | 3.29 ± 0.66 | 3.11 ± 0.62
338.1 K | 3.8 ± 0.76 | 3.56 ± 0.71
343.1 K | 4.34 ± 0.87 | 4.02 ± 0.8
348.1 K | 4.9 ± 0.98 | 4.56 ± 0.91
353.1 K | 5.68 ± 1.1 | 5.08 ± 1
358.1 K | 6.27 ± 1.2 | 5.63 ± 1.1
363.1 K | 7.13 ± 1.4 | 6.17 ± 1.2
368.1 K | 7.95 ± 1.6 | 7.28 ± 1.5
373.1 K | 8.5 ± 1.7 | 8.09 ± 1.6
378.1 K | 9.11 ± 1.8 | 9.1 ± 1.8
383.1 K | 9.97 ± 2 | 9.72 ± 1.9
388.1 K | 10.9 ± 2.2 | 10.1 ± 2
393.1 K | 11.8 ± 2.4 | 10.4 ± 2.1
398.1 K | 12.3 ± 2.5 | –
403.1 K | 12.7 ± 2.5 | –

[Br][Al]([Br])[Br] [aluminum bromide] + CCn1cc[n+](C)c1.[Br-]
electrical conductivity [S/m], [2]
Conditions | x1 = 0.3 | x1 = 0.6
258.1 K | 0.048 ± 0.0096 | 0.0432 ± 0.0086
263.1 K | 0.0898 ± 0.018 | 0.0717 ± 0.014
268.1 K | 0.122 ± 0.024 | 0.113 ± 0.023
273.1 K | 0.22 ± 0.044 | 0.16 ± 0.032
278.1 K | 0.284 ± 0.057 | 0.226 ± 0.045
283.1 K | 0.454 ± 0.091 | 0.338 ± 0.068
288.1 K | 0.599 ± 0.12 | 0.447 ± 0.089
293.1 K | 0.784 ± 0.16 | 0.645 ± 0.13
298.1 K | 0.979 ± 0.2 | 0.877 ± 0.17
303.1 K | 1.21 ± 0.24 | 1.14 ± 0.23
308.1 K | 1.49 ± 0.3 | 1.42 ± 0.28
313.1 K | 1.82 ± 0.36 | 1.75 ± 0.35
318.1 K | 2.14 ± 0.43 | 2.11 ± 0.42
323.1 K | 2.54 ± 0.51 | 2.56 ± 0.51
328.1 K | 3.05 ± 0.61 | 3.04 ± 0.61
333.1 K | 3.5 ± 0.7 | 3.62 ± 0.72
338.1 K | 4.05 ± 0.81 | 4.22 ± 0.84
343.1 K | 4.6 ± 0.92 | 4.87 ± 0.97
348.1 K | 5.14 ± 1 | 5.56 ± 1.1
353.1 K | 5.79 ± 1.2 | 6.35 ± 1.3
358.1 K | 6.95 ± 1.4 | 7.16 ± 1.4
363.1 K | 7.62 ± 1.5 | 7.79 ± 1.6
368.1 K | 8.28 ± 1.7 | 8.57 ± 1.7
373.1 K | 8.95 ± 1.8 | 9.46 ± 1.9
378.1 K | 9.7 ± 1.9 | 10.4 ± 2.1
383.1 K | 10.6 ± 2.1 | 11.4 ± 2.3
388.1 K | 11.4 ± 2.3 | 12.3 ± 2.5
393.1 K | 12 ± 2.4 | 12.8 ± 2.6
398.1 K | – | 13.7 ± 2.7
403.1 K | – | 14.5 ± 2.9
408.1 K | – | 15.3 ± 3.1
413.1 K | – | 15.8 ± 3.2
418.1 K | – | 16.5 ± 3.3

CCOS(=O)(=O)[O-].CCn1cc[n+](C)c1 [1-ethyl-3-methylimidazolium ethyl sulfate]
[1]
Conditions | electrical conductivity [S/m]
258.1 K | 0.0286 ± 0.0057
263.1 K | 0.0374 ± 0.0075
268.1 K | 0.0495 ± 0.0099
273.1 K | 0.0727 ± 0.015
278.1 K | 0.105 ± 0.021
283.1 K | 0.139 ± 0.028
288.1 K | 0.202 ± 0.04
293.1 K | 0.291 ± 0.058
298.1 K | 0.382 ± 0.076
303.1 K | 0.485 ± 0.097
308.1 K | 0.606 ± 0.12
313.1 K | 0.724 ± 0.14
318.1 K | 0.861 ± 0.17
323.1 K | 1.01 ± 0.2
328.1 K | 1.18 ± 0.24
333.1 K | 1.35 ± 0.27
338.1 K | 1.54 ± 0.31
343.1 K | 1.75 ± 0.35
348.1 K | 1.95 ± 0.39
353.1 K | 2.18 ± 0.44
358.1 K | 2.41 ± 0.48
363.1 K | 2.68 ± 0.54
368.1 K | 3 ± 0.6
373.1 K | 3.29 ± 0.66
378.1 K | 3.57 ± 0.71
383.1 K | 3.86 ± 0.77
388.1 K | 4.15 ± 0.83
393.1 K | 4.47 ± 0.89
398.1 K | 4.77 ± 0.95
403.1 K | 5.09 ± 1
408.1 K | 5.39 ± 1.1
413.1 K | 5.68 ± 1.1
418.1 K | 6 ± 1.2
423.1 K | 6.29 ± 1.3
428.1 K | 6.58 ± 1.3
433.1 K | 6.86 ± 1.4
